Laboratory results from PubChem BioAssay AID248 (DTP/NCI, 2004).
Toxic doses and inconclusive results are not listed. Cut-off read from the data, not from the text of the source: active = T/C of 150% or more; inactive = T/C below 125%.

System: L1210 leukemia ip in BDF1 mice, survival T/C
Assay: NCI In Vivo Anticancer Drug Screen. Data for tumor model L1210 Leukemia (intraperitoneal) in B6D2F1 (BDF1) mice
Conditions: endpoint: mean survival time, higher = longer survival
Method in brief: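 In this screen, tumor-bearing mice given compound are compared to those given vehicle, and their survival values are reported as a treated-to-control quotient.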

[1] = dose: 6.25 mg/kg/injection, schedule: Q01DX009 (ip), vehicle: saline with Tween-80
[2] = dose: 12.5 mg/kg/injection, schedule: Q01DX009 (ip), vehicle: saline with Tween-80
[3] = dose: 100.0 mg/kg/injection, schedule: Q01DX009 (ip), vehicle: saline
[4] = dose: 100.0 mg/kg/injection, schedule: Q04DX003 (ip), vehicle: Klucel (hydroxypropylcellulose) (HPC)
[5] = dose: 200.0 mg/kg/injection, schedule: Q04DX003 (ip), vehicle: Klucel (hydroxypropylcellulose) (HPC)
[6] = dose: 400.0 mg/kg/injection, schedule: Q04DX003 (ip), vehicle: Klucel (hydroxypropylcellulose) (HPC)
[7] = dose: 100.0 mg/kg/injection, schedule: Q04DX003 (ip), vehicle: gum acacia
[8] = dose: 200.0 mg/kg/injection, schedule: Q04DX003 (ip), vehicle: gum acacia
[9] = dose: 400.0 mg/kg/injection, schedule: Q04DX003 (ip), vehicle: gum acacia
[10] = dose: 50.0 mg/kg/injection, schedule: Q01DX001 (ip), vehicle: carboxymethylcellulose (CMC)
[11] = dose: 100.0 mg/kg/injection, schedule: Q01DX001 (ip), vehicle: carboxymethylcellulose (CMC)
[12] = dose: 200.0 mg/kg/injection, schedule: Q01DX001 (ip), vehicle: carboxymethylcellulose (CMC)
[13] = dose: 100.0 mg/kg/injection, schedule: Q01DX001 (ip), vehicle: saline
[14] = dose: 200.0 mg/kg/injection, schedule: Q01DX001 (ip), vehicle: saline
[15] = dose: 400.0 mg/kg/injection, schedule: Q01DX001 (ip), vehicle: saline
[16] = dose: 100.0 mg/kg/injection, schedule: Q04DX003 (ip), vehicle: saline with Tween-80
[17] = dose: 200.0 mg/kg/injection, schedule: Q04DX003 (ip), vehicle: saline with Tween-80
[18] = dose: 100.0 mg/kg/injection, schedule: Q01DX009 (ip), vehicle: saline with Tween-80
[19] = dose: 200.0 mg/kg/injection, schedule: Q01DX009 (ip), vehicle: saline with Tween-80
[20] = dose: 400.0 mg/kg/injection, schedule: Q01DX009 (ip), vehicle: saline with Tween-80

Measured: T/C

CCc1cc2c(cc1C(=O)CBr)C(C)(C)CCC2(C)C
inactive: [1] 103 % of control | [2] 109 % of control | dose: 12.5 mg/kg/injection, schedule: Q04DX003 (ip), vehicle: saline 100 % of control | dose: 25.0 mg/kg/injection, schedule: Q04DX003 (ip), vehicle: saline 102 % of control

CC(=O)OC1C=CCc2c(O)c3c(c(O)c21)C(=O)c1ccccc1C3=O (centres undefined)
inactive: [3] 91 % of control | dose: 100.0 mg/kg/injection, schedule: Q04DX003 (ip), vehicle: saline 90 % of control | dose: 200.0 mg/kg/injection, schedule: Q01DX009 (ip), vehicle: saline 109 % of control | dose: 200.0 mg/kg/injection, schedule: Q04DX003 (ip), vehicle: saline 88 % of control | dose: 400.0 mg/kg/injection, schedule: Q01DX009 (ip), vehicle: saline 103 % of control | dose: 400.0 mg/kg/injection, schedule: Q04DX003 (ip), vehicle: saline 91 % of control

CCCCC(=O)N1C(C)CCCC1C (centres undefined)
inactive: dose: 25.0 mg/kg/injection, schedule: Q04DX002 (ip), vehicle: saline 88 % of control | dose: 50.0 mg/kg/injection, schedule: Q04DX002 (ip), vehicle: saline 91 % of control | dose: 100.0 mg/kg/injection, schedule: Q04DX002 (ip), vehicle: saline 94 % of control | dose: 400.0 mg/kg/injection, schedule: Q04DX002 (ip), vehicle: saline 96 % of control

Cc1ccc(S(=O)(=O)N(C)c2ccccc2C(=O)O)cc1
inactive: [4] 104 % of control | [5] 97 % of control | [6] 95 % of control

Cc1cc(S(=O)(=O)F)ccc1NC(=O)Oc1ccccc1
inactive: [7] 95 % of control | [8] 104 % of control | [9] 87 % of control

Cc1cc(N(CCCl)CCCl)ccc1C=Nc1ccc(S(N)(=O)=O)cc1
inactive: [10] 95 % of control | [11] 104 % of control | [12] 101 % of control | dose: 400.0 mg/kg/injection, schedule: Q01DX001 (ip), vehicle: carboxymethylcellulose (CMC) 104 % of control

CC(=O)Nc1ccc(Cc2ccc(N=Cc3ccccc3)cc2)cc1
inactive: [13] 101 % of control | [14] 104 % of control | [15] 98 % of control

c1cc(Nc2ccncc2)ccn1
inactive: [1] 97 % of control | [2] 95 % of control | dose: 25.0 mg/kg/injection, schedule: Q01DX009 (ip), vehicle: saline with Tween-80 99 % of control | dose: 25.0 mg/kg/injection, schedule: Q04DX003 (ip), vehicle: saline with Tween-80 97 % of control

COc1cc(C#N)ccc1O
inactive: dose: 100.0 mg/kg/injection, schedule: Q01DX009 (ip), vehicle: gum acacia 106 % of control | [7] 103 % of control | dose: 200.0 mg/kg/injection, schedule: Q01DX009 (ip), vehicle: gum acacia 106 % of control | [8] 100 % of control | dose: 400.0 mg/kg/injection, schedule: Q01DX009 (ip), vehicle: gum acacia 90 % of control | [9] 94 % of control

Cc1noc2c1CCCC2
inactive: dose: 100.0 mg/kg/injection, schedule: Q04DX003 (ip), vehicle: carboxymethylcellulose (CMC) 103 % of control | dose: 200.0 mg/kg/injection, schedule: Q04DX003 (ip), vehicle: carboxymethylcellulose (CMC) 106 % of control

CCCCc1ccc(-n2cnc3c(=O)[nH]c(N)nc32)cc1
inactive: [16] 88 % of control | [17] 97 % of control

O=c1[nH]cnc2ncnn12
inactive: dose: 100.0 mg/kg/injection, schedule: Q01DX001 (ip), vehicle: alkali diluted with saline 104 % of control | dose: 200.0 mg/kg/injection, schedule: Q01DX001 (ip), vehicle: alkali diluted with saline 109 % of control | dose: 400.0 mg/kg/injection, schedule: Q01DX001 (ip), vehicle: alkali diluted with saline 104 % of control

N#Cc1cn(C2OC(CO)C(O)C2O)c2ncnc(Cl)c12 (centres undefined)
inactive: [13] 103 % of control | [14] 104 % of control | [15] 103 % of control

CC(C)(C)OC(=O)CSC#N
inactive: dose: 5.0 mg/kg/injection, schedule: Q01DX001 (ip), vehicle: saline 101 % of control | dose: 10.0 mg/kg/injection, schedule: Q01DX001 (ip), vehicle: saline 95 % of control | dose: 20.0 mg/kg/injection, schedule: Q01DX001 (ip), vehicle: saline 101 % of control

CSc1ncnc2c1ncn2C1CCCC1
inactive: [10] 116 % of control | [11] 104 % of control | [12] 107 % of control

Cc1cc(Cl)ccc1NC(=O)COc1ccc(Cl)cc1Cl
inactive: dose: 50.0 mg/kg/injection, schedule: Q01DX009 (ip), vehicle: saline with Tween-80 87 % of control | [18] 87 % of control | [16] 93 % of control | [19] 96 % of control | [17] 91 % of control

CCCCCCCCCCCCCCCCCC(=O)OCC1OC(OC2(COC(=O)CCCCCCCCCCCCCCCCC)OC(COC(=O)CCCCCCCCCCCCCCCCC)C(OC(=O)CCCCCCCCCCCCCCCCC)C2OC(=O)CCCCCCCCCCCCCCCCC)C(OC(=O)CCCCCCCCCCCCCCCCC)C(OC(=O)CCCCCCCCCCCCCCCCC)C1OC(=O)CCCCCCCCCCCCCCCCC (centres undefined)
inactive: dose: 100.0 mg/kg/injection, schedule: Q01DX001 (ip), vehicle: other 93 % of control | dose: 200.0 mg/kg/injection, schedule: Q01DX001 (ip), vehicle: other 90 % of control | dose: 400.0 mg/kg/injection, schedule: Q01DX001 (ip), vehicle: other 97 % of control

CCCCc1c(C)[nH]c(=S)[nH]c1=O
inactive: [18] 95 % of control | [19] 100 % of control | [20] 91 % of control

C/C(=N\O)c1ccc2ccc3ccccc3c2c1
inactive: dose: 100.0 mg/kg/injection, schedule: Q01DX009 (ip), vehicle: saline sonified 105 % of control | [18] 101 % of control | [4] 103 % of control | dose: 200.0 mg/kg/injection, schedule: Q01DX009 (ip), vehicle: saline sonified 93 % of control | [19] 93 % of control | [5] 103 % of control | dose: 400.0 mg/kg/injection, schedule: Q01DX009 (ip), vehicle: saline sonified 94 % of control | [20] 95 % of control | [6] 115 % of control

Cc1cc2cc3c(=O)[nH]c(=O)[nH]c3nc2cc1C
inactive: [13] 93 % of control | [14] 102 % of control | [15] 91 % of control

CCCCCCOC(=O)Nc1cccc(O)c1
inactive: [16] 104 % of control | [17] 101 % of control | dose: 400.0 mg/kg/injection, schedule: Q04DX003 (ip), vehicle: saline with Tween-80 91 % of control

CC1(C)N=C(N)N=C(N)N1c1ccc(CCNS(=O)(=O)c2ccc(S(=O)(=O)F)cc2)cc1
inactive: dose: 0.8 mg/kg/injection, schedule: Q01DX009 (ip), vehicle: saline 97 % of control | dose: 4.0 mg/kg/injection, schedule: Q01DX009 (ip), vehicle: saline 104 % of control | dose: 20.0 mg/kg/injection, schedule: Q01DX009 (ip), vehicle: saline 103 % of control | [3] 103 % of control | dose: 500.0 mg/kg/injection, schedule: Q01DX009 (ip), vehicle: saline 108 % of control
